Measured values published in US10709684B2, “SGLT-2 inhibitors for treating metabolic disorders in patients with renal impairment or chronic kidney disease” (Merck Sharp & Dohme Corp., priority 2014, dated 2020).
Like-named read-outs stand apart in the source and are kept apart here.

Experiments:
Type in all cases: in vivo, human
[1] = tested on: healthy and T2DM subjects; assay: Phase 1 single dose study: safety and tolerability; settings: single 15 mg dose; subjects with normal renal function and T2DM subjects with renal impairment
Excerpt: (§1) Ertugliflozin inhibits renal glucose reabsorption resulting in urinary glucose excretion, thereby reducing plasma glucose and HbA1c. The glycemic efficacy of SGLT2 inhibitors depends on the amount of glucose filtered through the kidney and the kidney is potentially a site of ertugliflozin metabolism. As renal impairment (RI) is a co-morbidity of T2DM, this study evaluated the effect of RI on the pharmacokinetics, pharmacodynamics (as measured by 24-hour urinary glucose excretion [UGE24]), safety, and tolerability of ertugliflozin in subjects with T2DM.
(§2) In this Phase 1, multi-center, open-label study, a single 15 mg oral dose of ertugliflozin was administered in the fasted state to healthy and T2DM subjects with normal renal function (estimated glomerular filtration rate [eGFR]≥90 mL/min) and in T2DM subjects with mild RI (eGFR 60-89 mL/min), moderate RI (eGFR 30-59 mL/min) and severe RI (eGFR<30 mL/min). Serial blood samples and urine samples at specified intervals were collected for 96 hours post-dose for pharmacokinetic evaluation and for measurement of UGE24.

[2] = Phase 1 single dose study: pharmacokinetics of ertugliflozin in renal impairment; settings: single 15 mg oral dose; for AUC(0-inf) / Cmax: geometric mean
Excerpt: (§3) Results of a Phase I, Single Dose Study to Study the Effect of Renal Impairment on the Pharmacokinetics and Pharmacodynamics of Ertugliflozin in Subjects with Type 2 Diabetes Mellitus (T2DM)
as §1, §2

[3] = tested on: urinary glucose excretion; assay: Phase 1 single dose study: pharmacodynamics, 24-hour urinary glucose excretion (UGE24); settings: single 15 mg oral dose; for Change from baseline in UGE24: fasted, geometric mean
Excerpt: as §3, §1, §2

[4] = Healthy Normal renal function (eGFR>=90 mL/min), n = 8, fasted
[5] = T2DM Normal renal function (eGFR>=90 mL/min), n = 6, fasted

In the case of `CCOc1ccc(Cc2cc([C@]34OC[C@](CO)(O3)[C@@H](O)[C@H](O)[C@H]4O)ccc2Cl)cc1` [Ertugliflozin, (1S,2S,3S,4R,5S)-5-[4-chloro-3-(4-ethoxy-benzyl)-phenyl]-1-hydroxymethyl-6,8-dioxa-bicyclo[3.2.1]octane-2,3,4-triol], the tolerability [1] is reported as “well tolerated”, the AUC(0-inf) [2, 4] is reported as 1236 ng·h/mL and the Cmax [2, 4] is reported as 219 ng/mL. It also gave a Cmax ([2]; T2DM Mild RI (eGFR 60-89 mL/min), n = 8, fasted) of 313 ng/mL, a Cmax ([2]; T2DM Moderate RI (eGFR 30-59 mL/min), n = 8, fasted) of 306 ng/mL and an AUC(0-inf) [2, 5] of 1199 ng·h/mL. For the same molecule, the Cmax [2, 5] was 216 ng/mL, the Cmax ([2]; T2DM Severe RI (eGFR<30 mL/min), n = 6, fasted) was 196 ng/mL and the “effect of renal insufficiency on systemic exposure” value ([2]; compared to subjects with normal renal function) was “moderately increased”. For the same molecule, the AUC(0-inf) ([2]; human, in vivo, po, 15 mg, T2DM Mild RI (eGFR 60-89 mL/min), n = 8, fasted, read-out: AUC0-inf) was 1910 ng·h/mL, the AUC(0-inf) ([2]; human, in vivo, po, 15 mg, T2DM Moderate RI (eGFR 30-59 mL/min), n = 8, fasted, read-out: AUC0-inf) was 2080 ng·h/mL and the AUC(0-inf) ([2]; human, in vivo, po, 15 mg, T2DM Severe RI (eGFR<30 mL/min), n = 6, fasted, read-out: AUC0-inf) was 1900 ng·h/mL. For the same molecule, the “exposures in healthy subjects versus T2DM subjects with normal renal function” value ([2]; fasted) was “similar”, the “Change from baseline in UGE24” value ([3]; Healthy Normal renal function (eGFR>=90 mL/min), n = 8) was 46.3 g and the “Change from baseline in UGE24” value ([3]; T2DM Mild RI (eGFR 60-89 mL/min), n = 8) was 36.0 g. For the same molecule, the “Change from baseline in UGE24” value ([3]; T2DM Moderate RI (eGFR 30-59 mL/min), n = 8) was 27.6 g, the “Change from baseline in UGE24” value ([3]; T2DM Normal renal function (eGFR>=90 mL/min), n = 6) was 72.3 g and the “Change from baseline in UGE24” value ([3]; T2DM Severe RI (eGFR<30 mL/min), n = 6) was 10.1 g. For the same molecule, the “UGE24 trend with renal function” value ([3]; despite the higher exposure) was “decreased with declining renal function”.
